# Assay results taken from publication PMC9954146, “Anti-Leukaemic Activity of Rilpivirine Is Mediated by Aurora A Kinase Inhibition” (Cancers, 2023).
# Columns and labels:
# Experiment in all cases: Kinase panel
# Type in all cases: biochemical
# Settings in all cases: read-out: % Residual Activity
# AAK1(h) = molecular target: T1, AAK1(h) (Homo sapiens, UniProt Q2M2I8)
# T1 construct: purchased Eurofins (KinaseProfiler)
# Experimental: (§1) Kinome-wide selectivity of rilpivirine was measured using the kinase screening and profiling service of Eurofins Scientific (Le bois l’Evêque 86600. Celle-Lévescault, France) and Ki values were determined using radioisotope-based assays by Reaction Biology Corporation (Malvern, PA, USA). The experimental details of Eurofin Scientific and Reaction Biology services for relevant assays are available at https://www.eurofinsdiscoveryservices.com/services/in-Vitro-assays/kinases/kinase-profiler (accessed on 7 July 2021) and https://www.reactionbiology.com (accessed on 7 July 2021), respectively. Ki values were estimated from the corresponding IC50 values using the Cheng–Prusoff equation [21] and the Km (ATP) of individual kinase was used for IC50 determination.
# Arg(m) = molecular target: T2, Arg(m) (Mus musculus, UniProt Q4JIM5)
# T2 construct: purchased Eurofins (KinaseProfiler)
# Experimental: as §1
# B-Raf(h) = molecular target: T3, B-Raf(h) (Homo sapiens, UniProt P15056)
# T3 construct: purchased Eurofins (KinaseProfiler)
# Experimental: as §1
# CDK18/cyclinY(h) = molecular target: T4, CDK18/cyclinY(h) (Homo sapiens, UniProt Q07002)
# T4 construct: purchased Eurofins (KinaseProfiler)
# Experimental: as §1
# CLIK1(h) = molecular target: T5, CLIK1(h) (Homo sapiens, UniProt Q8TDR2)
# T5 construct: purchased Eurofins (KinaseProfiler)
# Experimental: as §1
# CLK3(h) = molecular target: T6, CLK3(h) (Homo sapiens, UniProt P49761)
# T6 construct: purchased Eurofins (KinaseProfiler)
# Experimental: as §1
# CaMKIV(h) = molecular target: T7, CaMKIV(h) (Homo sapiens, UniProt Q16566)
# T7 construct: purchased Eurofins (KinaseProfiler)
# Experimental: as §1
# EphA8(h) = molecular target: T8, EphA8(h) (Homo sapiens, UniProt P29322)
# T8 construct: purchased Eurofins (KinaseProfiler)
# Experimental: as §1
# ErbB2(h) = molecular target: T9, ErbB2(h) (Homo sapiens, UniProt P04626)
# T9 construct: purchased Eurofins (KinaseProfiler)
# Experimental: as §1
# FAK(h) = molecular target: T10, FAK(h) (Homo sapiens, UniProt Q05397)
# T10 construct: purchased Eurofins (KinaseProfiler)
# Experimental: as §1
# FGFR2(N549H)(h) = molecular target: T11, FGFR2(N549H)(h) (Homo sapiens, UniProt P21802, N549H)
# T11 construct: purchased Eurofins (KinaseProfiler)
# Experimental: as §1
# Flt1(h) = molecular target: T12, Flt1(h) (Homo sapiens, UniProt P17948)
# T12 construct: purchased Eurofins (KinaseProfiler)
# Experimental: as §1
# Flt3(h) = molecular target: T13, Flt3(h) (Homo sapiens, UniProt P36888)
# T13 construct: purchased Eurofins (KinaseProfiler)
# Experimental: as §1
# Fms(h) = molecular target: T14, Fms(h) (Homo sapiens, UniProt P07333)
# T14 construct: purchased Eurofins (KinaseProfiler)
# Experimental: as §1
# GCK(h) = molecular target: T15, GCK(h) (Homo sapiens, UniProt Q12851)
# T15 construct: purchased Eurofins (KinaseProfiler)
# Experimental: as §1
# GSK3β(h) = molecular target: T16, GSK3β(h) (Homo sapiens, UniProt P49841)
# T16 construct: purchased Eurofins (KinaseProfiler)
# Experimental: as §1
# MAP4K4(h) = molecular target: T17, MAP4K4(h) (Homo sapiens, UniProt O95819)
# T17 construct: purchased Eurofins (KinaseProfiler)
# Experimental: as §1
# MKK6(h) = molecular target: T18, MKK6(h) (Homo sapiens, UniProt P52564)
# T18 construct: purchased Eurofins (KinaseProfiler)
# Experimental: as §1
# MLK1(h) = molecular target: T19, MLK1(h) (Homo sapiens, UniProt P80192)
# T19 construct: purchased Eurofins (KinaseProfiler)
# Experimental: as §1
# MLK3(h) = molecular target: T20, MLK3(h) (Homo sapiens, UniProt Q16584)
# T20 construct: purchased Eurofins (KinaseProfiler)
# Experimental: as §1
# MST2(h) = molecular target: T21, MST2(h) (Homo sapiens, UniProt Q13188)
# T21 construct: purchased Eurofins (KinaseProfiler)
# Experimental: as §1
# Mer(h) = molecular target: T22, Mer(h) (Homo sapiens, UniProt Q12866)
# T22 construct: purchased Eurofins (KinaseProfiler)
# Experimental: as §1
# Met(D1246H)(h) = molecular target: T23, Met(D1246H)(h) (Homo sapiens, UniProt P08581, D1228H)
# T23 construct: purchased Eurofins (KinaseProfiler)
# Experimental: as §1
# NEK3(h) = molecular target: T24, NEK3(h) (Homo sapiens, UniProt P51956)
# T24 construct: purchased Eurofins (KinaseProfiler)
# Experimental: as §1
# NLK(h) = molecular target: T25, NLK(h) (Homo sapiens, UniProt Q9UBE8)
# T25 construct: purchased Eurofins (KinaseProfiler)
# Experimental: as §1
# [1] = molecular target: PI3 Kinase (p110a(H1047R)/p85a)(m) (Mus musculus, UniProt P42337, H1047R)
# Experimental: as §1
# [2] = molecular target: T26, PI3 Kinase (p110a/p65a)(m) (Mus musculus, UniProt P42337)
# T26 construct: purchased Eurofins (KinaseProfiler)
# Experimental: as §1
# [3] = molecular target: PI3 Kinase (p110b/p85a)(m) (Mus musculus, UniProt Q8BTI9)
# Experimental: as §1
# [4] = molecular target: PI3 Kinase (p110b/p85b)(m) (Mus musculus, UniProt Q8BTI9)
# Experimental: as §1
# PI3KC2a(h) = PI3KC2a(h) (Homo sapiens, UniProt O00443)
# Experimental: as §1
# PI3KC2g(h) = PI3KC2g(h) (Homo sapiens, UniProt O75747)
# Experimental: as §1
# PKAcβ(h) = molecular target: T27, PKAcβ(h) (Homo sapiens, UniProt P22694)
# T27 construct: purchased Eurofins (KinaseProfiler)
# Experimental: as §1
# Pim-3(h) = molecular target: T28, Pim-3(h) (Homo sapiens, UniProt Q86V86)
# T28 construct: purchased Eurofins (KinaseProfiler)
# Experimental: as §1
# TRB2(h) = molecular target: T29, TRB2(h) (Homo sapiens, UniProt Q92519)
# T29 construct: purchased Eurofins (KinaseProfiler)
# Experimental: as §1
# TSSK3(h) = molecular target: T30, TSSK3(h) (Homo sapiens, UniProt Q96PN8)
# T30 construct: purchased Eurofins (KinaseProfiler)
# Experimental: as §1
# TrkA(h) = molecular target: T31, TrkA(h) (Homo sapiens, UniProt P04629)
# T31 construct: purchased Eurofins (KinaseProfiler)
# Experimental: as §1
# TrkC(h) = molecular target: T32, TrkC(h) (Homo sapiens, UniProt Q16288)
# T32 construct: purchased Eurofins (KinaseProfiler)
# Experimental: as §1
# mTOR/FKBP12(h) = molecular target: T33, mTOR/FKBP12(h) (Homo sapiens, UniProt P42345)
# T33 construct: purchased Eurofins (KinaseProfiler)
# Experimental: as §1
# T32 sequence (Q16288 32-839): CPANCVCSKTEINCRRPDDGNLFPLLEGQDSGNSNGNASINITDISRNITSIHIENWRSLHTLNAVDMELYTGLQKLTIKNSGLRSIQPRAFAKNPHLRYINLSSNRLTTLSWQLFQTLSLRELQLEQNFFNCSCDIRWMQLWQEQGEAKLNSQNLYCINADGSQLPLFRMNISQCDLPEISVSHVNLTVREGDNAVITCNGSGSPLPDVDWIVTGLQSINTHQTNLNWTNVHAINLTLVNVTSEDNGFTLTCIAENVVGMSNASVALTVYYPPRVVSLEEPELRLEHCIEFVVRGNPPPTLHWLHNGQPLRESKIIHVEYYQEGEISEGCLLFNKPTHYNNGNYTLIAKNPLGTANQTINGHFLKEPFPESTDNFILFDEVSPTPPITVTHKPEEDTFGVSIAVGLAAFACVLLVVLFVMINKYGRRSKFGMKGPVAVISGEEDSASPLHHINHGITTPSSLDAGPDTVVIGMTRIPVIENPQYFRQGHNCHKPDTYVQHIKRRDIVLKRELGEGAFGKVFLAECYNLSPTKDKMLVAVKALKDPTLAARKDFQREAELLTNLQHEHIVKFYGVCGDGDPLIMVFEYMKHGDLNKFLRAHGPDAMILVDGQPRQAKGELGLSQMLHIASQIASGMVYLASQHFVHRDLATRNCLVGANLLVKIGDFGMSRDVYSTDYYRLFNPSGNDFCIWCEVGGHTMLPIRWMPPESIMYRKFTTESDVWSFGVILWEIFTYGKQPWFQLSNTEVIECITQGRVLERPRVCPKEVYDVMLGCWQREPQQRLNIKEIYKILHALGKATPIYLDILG
# T18 sequence (P52564 whole entry): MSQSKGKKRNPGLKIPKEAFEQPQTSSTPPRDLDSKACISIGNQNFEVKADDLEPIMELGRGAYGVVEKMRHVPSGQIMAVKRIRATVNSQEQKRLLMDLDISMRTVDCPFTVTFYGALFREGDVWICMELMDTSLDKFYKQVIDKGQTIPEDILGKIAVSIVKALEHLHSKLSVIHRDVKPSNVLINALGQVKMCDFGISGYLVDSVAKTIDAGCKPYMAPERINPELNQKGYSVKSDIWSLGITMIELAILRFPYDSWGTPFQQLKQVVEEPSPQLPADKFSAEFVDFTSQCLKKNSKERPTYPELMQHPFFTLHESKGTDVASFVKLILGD
# T21 sequence (Q13188 whole entry): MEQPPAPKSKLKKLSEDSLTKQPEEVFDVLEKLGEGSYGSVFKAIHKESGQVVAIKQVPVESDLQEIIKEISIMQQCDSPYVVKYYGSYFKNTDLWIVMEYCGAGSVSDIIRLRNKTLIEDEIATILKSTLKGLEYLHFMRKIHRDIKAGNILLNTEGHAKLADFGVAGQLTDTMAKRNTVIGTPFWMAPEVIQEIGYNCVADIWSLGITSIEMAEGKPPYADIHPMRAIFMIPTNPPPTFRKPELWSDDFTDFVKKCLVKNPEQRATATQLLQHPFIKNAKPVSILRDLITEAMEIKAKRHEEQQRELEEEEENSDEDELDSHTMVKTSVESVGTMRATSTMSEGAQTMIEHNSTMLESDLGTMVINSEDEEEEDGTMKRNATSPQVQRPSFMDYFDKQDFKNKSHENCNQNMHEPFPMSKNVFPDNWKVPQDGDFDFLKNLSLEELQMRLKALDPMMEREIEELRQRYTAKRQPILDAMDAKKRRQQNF
# PI3KC2a(h), sequence (O00443 whole entry): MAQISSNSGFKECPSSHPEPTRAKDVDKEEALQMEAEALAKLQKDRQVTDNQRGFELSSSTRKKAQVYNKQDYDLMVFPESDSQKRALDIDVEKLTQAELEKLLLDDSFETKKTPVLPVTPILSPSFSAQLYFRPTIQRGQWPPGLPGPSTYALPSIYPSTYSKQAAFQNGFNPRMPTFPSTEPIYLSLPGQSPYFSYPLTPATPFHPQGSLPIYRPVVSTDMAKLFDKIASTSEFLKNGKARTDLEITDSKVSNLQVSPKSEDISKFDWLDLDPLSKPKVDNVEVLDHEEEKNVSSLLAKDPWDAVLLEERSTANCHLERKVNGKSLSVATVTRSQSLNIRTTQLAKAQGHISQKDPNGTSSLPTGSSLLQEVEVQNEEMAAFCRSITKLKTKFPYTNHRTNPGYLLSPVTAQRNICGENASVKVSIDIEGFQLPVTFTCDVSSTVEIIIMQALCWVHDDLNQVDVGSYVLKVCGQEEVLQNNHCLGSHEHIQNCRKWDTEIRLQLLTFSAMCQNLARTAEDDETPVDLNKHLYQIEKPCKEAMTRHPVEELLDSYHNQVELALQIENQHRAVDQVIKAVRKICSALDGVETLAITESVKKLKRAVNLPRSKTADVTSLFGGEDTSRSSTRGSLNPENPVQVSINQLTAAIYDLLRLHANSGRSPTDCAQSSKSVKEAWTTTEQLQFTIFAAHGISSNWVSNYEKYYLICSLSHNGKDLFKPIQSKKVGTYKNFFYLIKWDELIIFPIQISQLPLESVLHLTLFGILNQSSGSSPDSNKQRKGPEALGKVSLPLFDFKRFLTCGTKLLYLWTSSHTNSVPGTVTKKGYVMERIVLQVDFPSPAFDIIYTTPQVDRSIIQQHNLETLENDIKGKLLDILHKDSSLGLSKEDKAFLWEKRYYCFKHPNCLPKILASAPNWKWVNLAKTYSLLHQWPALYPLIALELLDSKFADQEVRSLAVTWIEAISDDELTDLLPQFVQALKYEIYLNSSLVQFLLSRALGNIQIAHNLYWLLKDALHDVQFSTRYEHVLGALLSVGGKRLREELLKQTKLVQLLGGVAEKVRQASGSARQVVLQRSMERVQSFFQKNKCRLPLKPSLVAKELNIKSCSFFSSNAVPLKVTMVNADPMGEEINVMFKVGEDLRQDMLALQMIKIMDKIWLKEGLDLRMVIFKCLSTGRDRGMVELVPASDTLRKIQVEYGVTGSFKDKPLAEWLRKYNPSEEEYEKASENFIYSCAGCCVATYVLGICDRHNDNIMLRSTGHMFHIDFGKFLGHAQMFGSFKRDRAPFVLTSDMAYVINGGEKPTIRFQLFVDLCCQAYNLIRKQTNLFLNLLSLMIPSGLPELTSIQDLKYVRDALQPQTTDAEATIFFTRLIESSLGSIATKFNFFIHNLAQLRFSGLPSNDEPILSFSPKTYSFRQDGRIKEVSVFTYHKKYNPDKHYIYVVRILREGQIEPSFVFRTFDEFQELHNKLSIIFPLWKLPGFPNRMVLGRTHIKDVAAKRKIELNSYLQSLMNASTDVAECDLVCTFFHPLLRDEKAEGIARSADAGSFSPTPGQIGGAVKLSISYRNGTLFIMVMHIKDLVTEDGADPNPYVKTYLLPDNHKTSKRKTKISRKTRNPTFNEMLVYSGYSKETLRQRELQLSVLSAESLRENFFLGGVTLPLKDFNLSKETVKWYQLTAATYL
# PI3 Kinase (p110b/p85b)(m), sequence (Q8BTI9 whole entry): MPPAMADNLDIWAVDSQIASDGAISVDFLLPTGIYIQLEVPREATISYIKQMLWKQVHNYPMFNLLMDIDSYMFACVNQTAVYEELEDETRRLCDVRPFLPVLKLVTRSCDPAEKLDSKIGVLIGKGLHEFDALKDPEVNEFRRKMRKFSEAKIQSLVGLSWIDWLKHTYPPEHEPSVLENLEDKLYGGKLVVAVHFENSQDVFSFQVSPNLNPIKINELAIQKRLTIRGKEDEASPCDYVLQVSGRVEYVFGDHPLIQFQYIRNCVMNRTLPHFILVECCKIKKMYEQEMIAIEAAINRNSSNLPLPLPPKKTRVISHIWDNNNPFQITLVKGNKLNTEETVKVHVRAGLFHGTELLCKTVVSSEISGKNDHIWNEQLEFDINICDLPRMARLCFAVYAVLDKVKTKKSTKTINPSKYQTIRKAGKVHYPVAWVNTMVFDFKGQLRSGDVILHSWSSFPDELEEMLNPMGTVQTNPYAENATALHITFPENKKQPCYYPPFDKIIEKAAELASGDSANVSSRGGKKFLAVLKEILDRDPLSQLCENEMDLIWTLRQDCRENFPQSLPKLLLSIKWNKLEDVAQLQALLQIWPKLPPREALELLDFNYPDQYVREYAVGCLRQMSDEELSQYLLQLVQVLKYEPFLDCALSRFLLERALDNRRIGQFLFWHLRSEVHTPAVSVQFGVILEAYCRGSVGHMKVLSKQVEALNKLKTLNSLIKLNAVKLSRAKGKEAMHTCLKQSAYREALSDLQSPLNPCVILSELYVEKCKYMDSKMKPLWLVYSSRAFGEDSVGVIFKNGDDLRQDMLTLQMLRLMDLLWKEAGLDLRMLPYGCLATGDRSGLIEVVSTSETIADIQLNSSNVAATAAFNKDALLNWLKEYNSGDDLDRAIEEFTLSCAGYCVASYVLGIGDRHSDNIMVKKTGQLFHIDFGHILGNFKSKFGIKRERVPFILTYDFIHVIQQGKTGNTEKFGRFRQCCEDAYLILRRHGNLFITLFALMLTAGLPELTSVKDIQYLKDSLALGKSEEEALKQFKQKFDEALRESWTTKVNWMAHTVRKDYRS
# PI3 Kinase (p110b/p85b)(m), sequence (O08908 whole entry partner): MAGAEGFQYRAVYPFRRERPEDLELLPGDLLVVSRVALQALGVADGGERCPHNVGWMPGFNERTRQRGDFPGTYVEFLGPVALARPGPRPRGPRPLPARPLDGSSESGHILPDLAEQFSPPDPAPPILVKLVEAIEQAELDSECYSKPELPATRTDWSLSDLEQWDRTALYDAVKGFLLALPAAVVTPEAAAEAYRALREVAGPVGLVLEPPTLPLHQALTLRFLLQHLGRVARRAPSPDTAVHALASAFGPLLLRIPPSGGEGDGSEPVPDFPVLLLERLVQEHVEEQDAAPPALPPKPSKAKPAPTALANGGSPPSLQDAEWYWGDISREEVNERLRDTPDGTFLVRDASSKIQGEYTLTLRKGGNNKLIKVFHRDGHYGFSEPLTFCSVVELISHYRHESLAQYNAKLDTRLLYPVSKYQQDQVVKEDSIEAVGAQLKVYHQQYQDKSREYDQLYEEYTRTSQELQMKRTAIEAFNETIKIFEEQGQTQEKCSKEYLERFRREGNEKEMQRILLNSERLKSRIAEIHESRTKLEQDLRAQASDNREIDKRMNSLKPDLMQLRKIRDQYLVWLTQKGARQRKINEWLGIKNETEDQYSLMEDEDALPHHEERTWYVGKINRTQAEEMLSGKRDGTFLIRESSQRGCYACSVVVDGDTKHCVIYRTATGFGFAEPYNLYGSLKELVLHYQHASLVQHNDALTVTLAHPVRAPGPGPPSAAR
smiles,measurement,setting,value
"Cc1cc(/C=C/C#N)cc(C)c1Nc1ccnc(Nc2ccc(C#N)cc2)n1 [rilpivirine, (E)-4-((4-((4-(2-cyanoethenyl)-2,6-dimethylphenyl)amino)pyrimidin-2-yl)amino)benzonitrile]",remaining activity at 1 µM,AAK1(h),87%
same,remaining activity at 1 µM,Arg(m),48%
same,remaining activity at 1 µM,B-Raf(h),80%
same,remaining activity at 1 µM,CDK18/cyclinY(h),93%
same,remaining activity at 1 µM,CLIK1(h),85%
same,remaining activity at 1 µM,CLK3(h),93%
same,remaining activity at 1 µM,CaMKIV(h),81%
same,remaining activity at 1 µM,EphA8(h),60%
same,remaining activity at 1 µM,ErbB2(h),116%
same,remaining activity at 1 µM,FAK(h),86%
same,remaining activity at 1 µM,FGFR2(N549H)(h),91%
same,remaining activity at 1 µM,Flt1(h),100%
same,remaining activity at 1 µM,Flt3(h),123%
same,remaining activity at 1 µM,Fms(h),91%
same,remaining activity at 1 µM,GCK(h),99%
same,remaining activity at 1 µM,GSK3β(h),84%
same,remaining activity at 1 µM,MAP4K4(h),79%
same,remaining activity at 1 µM,MKK6(h),94%
same,remaining activity at 1 µM,MLK1(h),81%
same,remaining activity at 1 µM,MLK3(h),81%
same,remaining activity at 1 µM,MST2(h),80%
same,remaining activity at 1 µM,Mer(h),74%
same,remaining activity at 1 µM,Met(D1246H)(h),95%
same,remaining activity at 1 µM,NEK3(h),91%
same,remaining activity at 1 µM,NLK(h),64%
same,remaining activity at 1 µM,[1],96%
same,remaining activity at 1 µM,[2],104%
same,remaining activity at 1 µM,[3],98%
same,remaining activity at 1 µM,[4],97%
same,remaining activity at 1 µM,PI3KC2a(h),94%
same,remaining activity at 1 µM,PI3KC2g(h),82%
same,remaining activity at 1 µM,PKAcβ(h),93%
same,remaining activity at 1 µM,Pim-3(h),89%
same,remaining activity at 1 µM,TRB2(h),65%
same,remaining activity at 1 µM,TSSK3(h),95%
same,remaining activity at 1 µM,TrkA(h),101%
same,remaining activity at 1 µM,TrkC(h),91%
same,remaining activity at 1 µM,mTOR/FKBP12(h),100%
